Each structure is given as a SMILES string. Structures can show the parent of a compound that is named as a salt. Some results are limits rather than exact numbers.

The term melting point denotes the temperature, or range, at which the solid turns liquid. As for `COc1cc2[nH]c(=O)c(-c3csc(-c4cccnc4)n3)c(N)c2cc1OC` [Example 20, 3-[2-(3-Pyridyl)-4-thiazolyl]-4-amino-6,7-dimethoxy-2(1H)-quinolinone], the melting point was > 250 °C. With `O=c1[nH]c2ccccc2cc1-c1csc(-c2ccncc2)n1` [Example 1, 3-[2-(4-Pyridyl)-4-thiazolyl]-2(1H)-quinolinone] the figure was 241 to 243 °C; with `CCN(CC)C(=O)c1cccc2[nH]c(=O)c(-c3csc(-c4ccncc4)n3)cc12` [Example 11, N,N-Diethyl-1,2-dihydro-2-oxo-3-[2-(4-pyridyl)-4-thiazolyl]-5-quinolinecarboxamide], 210 °C (dec.); with `O=c1[nH]c2ccccc2cc1-c1nc(-c2cccc([N+](=O)[O-])c2)cs1` [Example 114, 3-[4-(3-Nitrophenyl)-1,3-thiazol-2-yl]hydroquinolin-2-one], > 300 °C.

As for `O=c1[nH]c2ccccc2c(O)c1-c1csc(-c2ccncc2)n1` [Example 5, 3-[2-(4-pyridyl)-4-thiazolyl]-4-hydroxy-2(1H)-quinolinone], the melting point is > 250 °C. With `O=c1[nH]c2cc3c(cc2cc1-c1csc(-c2ccncc2)n1)OCO3` [Example 18, 7-(2-(4-Pyridinyl)-1,3-thiazol-4-yl)[1,3]dioxolo[4,5-g]quinolin-6(5H)-one] the figure was 167 to 169 °C; with `O=c1[nH]c2ccccc2cc1-c1csc(NCc2ccco2)n1` (as salt: hydrobromid) [Example 79, 3-{2-[(2-Furylmethyl)amino]-1,3-thiazol-4-yl}hydroquinolin-2-one hydrobromide], 221 to 224 °C (dec.).

On to `CN1CCN(C(=O)c2ccc3cc(-c4csc(N(C)S(=O)(=O)c5ccccc5)n4)c(=O)[nH]c3c2)CC1` [Example 8765, N-Methyl-N-{4-[7-(4-methyl-piperazine-1-carbonyl)-2-oxo-1,2-dihydro-quinolin-3-yl]-thiazol-2-yl}-benzenesulfonamide], for which the melting point lay within 242 to 247 °C.

`CNc1nc(-c2cc3ccccc3[nH]c2=O)cs1` (as salt: hydrobromid) [Example 75, 3-[2-(Methylamino)-1,3-thiazol-4-yl]hydroquinolin-2-one hydrobromide] returned a melting point of 292 to 293 °C. `O=c1[nH]c2ccccc2cc1-c1csc(Nc2cccnc2)n1` (as salt: hydrobromid) [Example 68, 3-[2-(3-Pyridylamino)-1,3-thiazol-4-yl]hydroquinolin-2-one]: the melting point was > 300 °C. With `CN(C)CCN(C)C(=O)c1ccc2cc(-c3csc(N(C)S(=O)(=O)c4ccccc4)n3)c(=O)[nH]c2c1` [Example 8788, 3-[2-(Benzenesulfonyl-methyl-amino)-thiazol-4-yl]-2-oxo-1,2-dihydro-quinoline-7-carboxylic acid (2-dimethylamino-ethyl)-methyl-amide] the figure was 144 to 148 °C; with `O=C(Cc1ccccc1)Nc1nc(-c2cc3ccccc3[nH]c2=O)cs1` [Example 72, N-[4-(2-Oxo(3-hydroquinolyl))(1,3-thiazol-2-yl)]-2-phenylacetamide], 272 to 278 °C; with `O=c1[nH]c2ccccc2cc1-c1csc(Nc2ccccc2F)n1` [Example 78, 3-{2-[(2-Fluorophenyl)amino]-1,3-thiazol-4-yl}hydroquinolin-2-one], 277 to 278 °C (dec.). With `CN(C(=O)c1ccccc1)c1nc(-c2cc3ccccc3[nH]c2=O)cs1` [Example 76, N-Methyl-N-[4-(2-oxo(3-hydroquinolyl))(1,3-thiazol-2-yl)]benzamide] the figure was > 300 °C; with `Cc1onc(-c2ccccc2)c1-c1csc(-c2cc3ccccc3[nH]c2=O)n1` [Example 116, 3-[4-(5-Methyl-3-phenylisoxazol-4-yl)-1,3-thiazol-2-yl]hydroquinolin-2-one], 242 to 244 °C. With `CN1CCN(c2ccc3[nH]c(=O)c(-c4csc(-c5ccncc5)n4)c(N)c3c2)CC1` [Example 22, 3-[2-(4-Pyridyl)-4-thiazolyl]-4-amino-6-(4-methyl-1-piperazinyl)-2(1H)-quinolinone] the figure was > 220 °C; with `Nc1nc(-c2cc3ccccc3[nH]c2=O)cs1` (as salt: hydrobromid) [Example 66, 3-(2-Amino-1,3-thiazol-4-yl)hydroquinolin-2-one], > 300 °C. As to `CS(=O)(=O)c1ccc(-c2csc(-c3cc4ccccc4[nH]c3=O)n2)cc1` [Example 112, 3-{4-[4-(Methylsulfonyl)phenyl]-1,3-thiazol-2-yl}hydroquinolin-2-one], the melting point was > 300 °C. With `COc1ccc(CC(=O)Nc2nc(-c3cc4ccccc4[nH]c3=O)cs2)c(OC)c1` [Example 73, 2-(2,4-Dimethoxyphenyl)-N-[4-(2-oxo(3-hydroquinolyl))(1,3-thiazol-2-yl)]acetamide] the figure was 295 to 300 °C (dec.).

The values above are taken from patent US6822097B1, “Compounds and methods of uses” (Amgen, Inc., priority 2002, dated 2004).
